Data from patent publication US12084610B2, “Compositions and methods for reducing deleterious atmospheric gas emissions from flooded ecosystems” (Arkea Bio Corp., priority 2022, dated 2024).

Key:
[1] = 3-NOP pH and temperature stability (HPLC); assay type: physicochemical; conditions: 1-month time period, temperature 4-30 C, pH 4-10
Text: 3-NOP pH and Temperature Stability: Confirmed via HPLC over a 1-month time period at temperature between 4-30 C and pH 4-10.

[2] = 3-NOP volatility (mass loss open to air); assay type: physicochemical; conditions: 500 mg in 5 dram vial open to air, ~18-24 C, 15-30% RH, 6 days
Method: 3-NOP Volatility: 500 mg of 3-NOP in a 5 dram vial was left open to air at ˜18-24 C at 15-30% RH over the course of 6 days. Average mass loss is ˜0.25% per day.

## O=[N+]([O-])OCCCO [Formula 3-NOP, 3-nitrooxypropanol]
[1]
  3-NOP pH and Temperature Stability: Confirmed
[2]
  Average mass loss (volatility): ~0.25 % per day
